Bounds are passed on as bounds.

The target in experiment [1] is Recombinant Human NF-Kappab-Inducing Kinase (NIK/MAP3K14) (Homo sapiens, UniProt Q99558). Description: Inhibition of auto-phosphorylation of recombinant human NIK/MAP3K14 (AlphaScreen). Format: biochemical. The conditions noted are these: NIK/MAP3K14 auto-phosphorylation, 5 microM ATP, 1 nM enzyme, 2 h at 25° C.; average of values; read-out: Assay 1 IC50. In a few lines: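 AlphaScreen read-out used anti-phospho-IKK Ser176/180 antibody after 2 h, 25 °C incubation of compound, 1 nM GST-NIK and 5 µM ATP (final DMSO 0.7%). Percent inhibition referenced to high (enzyme) and low (no enzyme, no ATP) controls; sigmoidal curve fitting gave IC50.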
Background: Alpha assays give light when donor and acceptor beads are brought close together.

Experiment [2] deals with p-IKKα levels in L363 (NIK translocated multiple myeloma) cells. Kind of experiment: Effect of compounds on p-IKKα levels in L363 cells (AlphaLISA SureFire Ultra). Format: cell-based. To be noted: Homo sapiens, L-363; L363 cells, BAFF stimulated, MG132, 6 h; average of values; read-out: Assay 2 IC50. In a few lines:
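Phospho-IKKα (Ser 176/180) was quantified by AlphaLISA in lysed L363 cells after 6 h compound exposure (0.3% DMSO, 11 points, 1:3) alongside 250 ng/ml BAFF and 10 uM MG132, following overnight BAFF priming in low-serum DMEM. Duplicate curves were scaled between BAFF/DMSO/MG132 and unstimulated DMSO wells, then fitted sigmoidally for IC50.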

Recombinant Human NF-Kappab-Inducing Kinase (NIK/MAP3K14), sequence (Q99558 whole entry): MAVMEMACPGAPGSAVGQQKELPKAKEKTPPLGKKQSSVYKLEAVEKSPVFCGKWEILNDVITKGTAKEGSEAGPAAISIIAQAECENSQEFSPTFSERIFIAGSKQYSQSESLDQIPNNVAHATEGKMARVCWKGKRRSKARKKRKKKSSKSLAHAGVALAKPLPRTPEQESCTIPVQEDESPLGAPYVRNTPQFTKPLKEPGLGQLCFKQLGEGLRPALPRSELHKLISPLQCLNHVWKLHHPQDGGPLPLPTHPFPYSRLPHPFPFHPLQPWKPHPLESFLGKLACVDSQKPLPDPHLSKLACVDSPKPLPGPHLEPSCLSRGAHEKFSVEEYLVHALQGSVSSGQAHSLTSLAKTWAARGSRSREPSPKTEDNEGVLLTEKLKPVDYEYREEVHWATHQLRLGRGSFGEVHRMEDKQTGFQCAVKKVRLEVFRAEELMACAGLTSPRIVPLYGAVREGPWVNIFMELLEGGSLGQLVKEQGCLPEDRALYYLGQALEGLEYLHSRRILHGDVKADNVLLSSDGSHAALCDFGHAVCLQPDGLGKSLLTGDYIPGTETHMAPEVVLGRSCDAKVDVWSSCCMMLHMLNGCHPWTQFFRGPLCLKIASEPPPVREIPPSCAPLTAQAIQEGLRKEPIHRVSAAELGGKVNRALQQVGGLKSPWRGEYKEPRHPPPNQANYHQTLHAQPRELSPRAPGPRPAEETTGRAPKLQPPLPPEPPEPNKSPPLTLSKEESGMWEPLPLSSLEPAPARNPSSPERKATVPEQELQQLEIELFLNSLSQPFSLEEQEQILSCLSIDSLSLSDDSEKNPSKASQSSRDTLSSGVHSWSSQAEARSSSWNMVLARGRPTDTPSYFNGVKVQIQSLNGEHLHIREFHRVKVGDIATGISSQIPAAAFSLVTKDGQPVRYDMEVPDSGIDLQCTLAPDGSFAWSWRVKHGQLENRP

Consider `Cc1nc(N)c2nc(-c3cc(-c4cc([C@]5(O)CCN(C)C5=O)on4)ccn3)ccc2n1` [Example 170, (R)-3-(3-(2-(4-Amino-2-methylpyrido[3,2-d]pyrimidin-6-yl)pyridin-4-yl)isoxazol-5-yl)-3-hydroxy-1-methylpyrrolidin-2-one], for which the IC50 (as a rule, the concentration that inhibits the measured activity by half) in experiment [1] was less than 100 nM; in experiment [2], more than 501 nM.
For `CN1CC[C@@](O)(c2cc(-c3cccc(-c4cc(N[C@H]5CCOC5)cc(C(N)=O)n4)c3)no2)C1=O` [Example 131, 6-(3-(5-((R)-3-Hydroxy-1-methyl-2-oxopyrrolidin-3-yl)isoxazol-3-yl)phenyl)-4-(((S)-tetrahydrofuran-3-yl)amino)picolinamide] the same measures were more than 501 nM and more than 501 nM.
`[2H]c1nc(N)c2nc(-c3cccc(-c4cc([C@]5(O)CCN(C)C5=O)on4)c3)ccc2n1` [Example 2, (R)-3-(3-(3-(4-Aminopyrido[3,2-d]pyrimidin-6-yl-2-d)phenyl)isoxazol-5-yl)-3-hydroxy-1-methylpyrrolidin-2-one]: the values for the IC50 in experiment [1] and in experiment [2] were less than 100 nM and 100 to 500 nM, respectively.
For `CN1CC[C@@](O)(c2cc(-c3cccc(-c4cccc(C(N)=O)n4)c3)on2)C1=O` [Example 18, (R)-6-(3-(3-(3-Hydroxy-1-methyl-2-oxopyrrolidin-3-yl)isoxazol-5-yl)phenyl)picolinamide] the same measures were less than 100 nM and more than 501 nM.
On the same counts, the results for `CN1CC[C@@](O)(c2cc(-c3cccc(-c4ncc(N[C@@H]5CCOC5)c(C(N)=O)n4)c3)no2)C1=O` [Example 129, 2-(3-(5-((R)-3-hydroxy-1-methyl-2-oxopyrrolidin-3-yl)isoxazol-3-yl)phenyl)-5-(((R)-tetrahydrofuran-3-yl)amino)pyrimidine-4-carboxamide] are less than 100 nM and less than 100 nM.
Regarding `CN1CC[C@@](O)(c2cc([C@H]3CCCN(c4ccc5ncnc(N)c5n4)C3)no2)C1=O` (single isomer, unassigned) [Example 203], the IC50 is less than 100 nM in experiment [1] and more than 501 nM in experiment [2].
On the same counts, the results for `[2H]c1nc(N)c2nc(-c3cccc(-c4cc([C@]5(O)CCN(C)C5=O)no4)c3)ccc2n1` [Example 16, (R)-3-(5-(3-(4-Aminopyrido[3,2-d]pyrimidin-6-yl-2-d)phenyl)isoxazol-3-yl)-3-hydroxy-1-methylpyrrolidin-2-one] are less than 100 nM and 100 to 500 nM.
As to `CN1CC[C@@](O)(c2cc(-c3cccc(-c4ccc(NCC5COC5)c(C(N)=O)n4)c3)no2)C1=O` [Example 106, (R)-6-(3-(5-(3-Hydroxy-1-methyl-2-oxopyrrolidin-3-yl)isoxazol-3-yl)phenyl)-3-((oxetan-3-ylmethyl)amino)picolinamide], the concentration for half-maximal inhibition (IC50) is less than 100 nM in experiment [1] and 100 to 500 nM in experiment [2].
As for `CN1CC[C@@](O)(c2cc(-c3cccc(-c4c[nH]c5ncccc45)c3)no2)C1=O` [Example 24, (R)-3-(3-(3-(1H-Pyrrolo[2,3-b]pyridin-3-yl)phenyl)isoxazol-5-yl)-3-hydroxy-1-methylpyrrolidin-2-one], the results for the IC50 in experiment [1] and in experiment [2] were 100 to 500 nM and more than 501 nM, respectively.
For `CN1CC[C@@](O)(c2cc(-c3cccc(-c4ncc(C(N)=O)s4)c3)no2)C1=O` [Example 212, (R)-2-(3-(5-(3-hydroxy-1-methyl-2-oxopyrrolidin-3-yl)isoxazol-3-yl)phenyl)thiazole-5-carboxamide] the same measures were more than 501 nM and more than 501 nM.
On the same counts, the results for `CN1CC[C@@](O)(c2cc(-c3cccc(-c4cc(C(F)(F)F)c5cn[nH]c5n4)c3)no2)C1=O` [Example 225, (R)-3-Hydroxy-1-methyl-3-(3-(3-(4-(trifluoromethyl)-1H-pyrazolo[3,4-b]pyridin-6-yl)phenyl)isoxazol-5-yl)pyrrolidin-2-one] are 100 to 500 nM and more than 501 nM.
In the case of `CC(C)N1CCn2c(-c3cccc(-c4cc([C@]5(O)CCN(C)C5=O)on4)c3)nc(C(N)=O)c2C1` [Example 233, (R)-3-(3-(5-(3-Hydroxy-1-methyl-2-oxopyrrolidin-3-yl)isoxazol-3-yl)phenyl)-7-isopropyl-5,6,7,8-tetrahydroimidazo[1,5-a]pyrazine-1-carboxamide], the IC50 in experiment [1] and in experiment [2] was more than 501 nM throughout.
With `[2H]c1nc(N)c2nc(-c3cccc(-n4cc([C@]5(O)CCN(C)C5=O)nn4)c3)ccc2n1` [Example 35, (R)-3-(1-(3-(4-Aminopyrido[3,2-d]pyrimidin-6-yl-2-d)phenyl)-1H-1,2,3-triazol-4-yl)-3-hydroxy-1-methylpyrrolidin-2-one], the IC50 in experiment [1] is less than 100 nM; in experiment [2], more than 501 nM.
With `[2H]C([2H])([2H])N1CC[C@@](O)(c2cc(-c3cccc(-c4cc(C5CC5)c(N)c(C(N)=O)n4)c3)no2)C1=O` [Example 179, (R)-3-Amino-4-cyclopropyl-6-(3-(5-(3-hydroxy-1-(methyl-d3)-2-oxopyrrolidin-3-yl)isoxazol-3-yl)phenyl)picolinamide], the IC50 in experiment [1] and in experiment [2] was less than 100 nM throughout.
Consider `CN1CC[C@@](O)(c2cc(-c3cccc(-c4ccc5c(cnn5C)n4)c3)no2)C1=O` [Example 229, (R)-3-Hydroxy-1-methyl-3-(3-(3-(1-methyl-1H-pyrazolo[4,3-b]pyridin-5-yl)phenyl)isoxazol-5-yl)pyrrolidin-2-one], for which the IC50 in experiment [1] and in experiment [2] was more than 501 nM in each case.
Take `Cc1ncn2cc(-c3cccc(-c4cc([C@]5(O)CCN(C)C5=O)on4)c3)ccc12` [Example 57, (R)-3-Hydroxy-1-methyl-3-(3-(3-(1-methylimidazo[1,5-a]pyridin-6-yl)phenyl)isoxazol-5-yl)pyrrolidin-2-one]: the IC50 in experiment [1] and in experiment [2] was more than 501 nM in each case.
Regarding `CN1CC[C@@](O)(c2cc(-c3cccc(-c4ncc5ccnc(N)c5n4)c3)no2)C1=O` [Example 10, (R)-3-(3-(3-(8-Aminopyrido[3,4-d]pyrimidin-2-yl)phenyl)isoxazol-5-yl)-3-hydroxy-1-methylpyrrolidin-2-one], the IC50 in experiment [1] was less than 100 nM; in experiment [2], more than 501 nM.
For `CN1CC[C@@](O)(c2cc(-c3cccc(-n4ccc(C(N)=O)n4)c3)no2)C1=O` [Example 193, (R)-1-(3-(5-(3-Hydroxy-1-methyl-2-oxopyrrolidin-3-yl)isoxazol-3-yl)phenyl)-1H-pyrazole-3-carboxamide], the results for the IC50 in experiment [1] and in experiment [2] were less than 100 nM and more than 501 nM, respectively.
For `CN1CC[C@@](O)(c2cc(-c3cccc(-c4ccc5cncn5c4)c3)no2)C1=O` [Example 51, (R)-3-Hydroxy-3-(3-(3-(imidazo[1,5-a]pyridin-6-yl)phenyl)isoxazol-5-yl)-1-methylpyrrolidin-2-one] the same measures were 100 to 500 nM and more than 501 nM.
As for `CN1CC[C@@](O)(c2cc(-c3cccc(-c4cccc5c(=O)[nH]ccc45)n3)no2)C1=O` [Example 196, (R)-5-(6-(5-(3-Hydroxy-1-methyl-2-oxopyrrolidin-3-yl)isoxazol-3-yl)pyridin-2-yl)isoquinolin-1(2H)-one], the values for the IC50 in experiment [1] and in experiment [2] were less than 100 nM and more than 501 nM, respectively.
On the same counts, the results for `CN1CC[C@@](O)(c2cc(-c3cccc(-c4cc5cn[nH]c5c(C(N)=O)n4)c3)no2)C1=O` [Example 143, (R)-5-(3-(5-(3-hydroxy-1-methyl-2-oxopyrrolidin-3-yl)isoxazol-3-yl)phenyl)-1H-pyrazolo[3,4-c]pyridine-7-carboxamide] are less than 100 nM and less than 100 nM.
For `CN1CCC(O)(c2cc(-c3cccc(-c4c[nH]c5ncccc45)c3)on2)C1=O` (racemic) [Example 9, (R,S)-3-(5-(3-(1H-Pyrrolo[2,3-b]pyridin-3-yl)phenyl)isoxazol-3-yl)-3-hydroxy-1-methylpyrrolidin-2-one] the same measures were 100 to 500 nM and more than 501 nM.
On the same counts, the results for `CN1CCC(O)(c2cc(-c3cccc(-c4ncc5ccnc(N)c5n4)c3)on2)C1=O` (racemic) [Example 165] are less than 100 nM and more than 501 nM.
In the case of `[2H]c1nc(N)c2nc(-c3cccc(-c4n[nH]c([C@]5(O)CCN(C)C5=O)n4)c3)ccc2n1` (single isomer, unassigned) [Example 34], the IC50 in experiment [1] and in experiment [2] was more than 501 nM in each case.
For the compound `CN1CC[C@@](O)(c2cc(-c3cccc(-c4cc(C5CC5)c(N)c(C(N)=O)n4)c3)on2)C1=O` [Example 108, (R)-3-Amino-4-cyclopropyl-6-(3-(3-(3-hydroxy-1-methyl-2-oxopyrrolidin-3-yl)isoxazol-5-yl)phenyl)picolinamide], the IC50 in experiment [1] and in experiment [2] was less than 100 nM throughout.
Consider `CNc1sc(-c2cccc(-c3cc([C@]4(O)CCN(C)C4=O)on3)c2)nc1C(N)=O` [Example 209, (R)-2-(3-(5-(3-Hydroxy-1-methyl-2-oxopyrrolidin-3-yl)isoxazol-3-yl)phenyl)-5-(methylamino)thiazole-4-carboxamide], for which the IC50 in experiment [1] and in experiment [2] was less than 100 nM in each case.
With `CNc1ccc(-c2cccc(-c3cc([C@]4(O)CCN(C)C4=O)on3)c2)nc1C(N)=O` [Example 104, (R)-6-(3-(5-(3-Hydroxy-1-methyl-2-oxopyrrolidin-3-yl)isoxazol-3-yl)phenyl)-3-(methylamino)picolinamide], the IC50 in experiment [1] and in experiment [2] was less than 100 nM throughout.

These data come from US20250282785A1, “PYRROLIDINONE DERIVATIVES AS INHIBITORS OF NF KAPPA B INDUCING KINASE” (priority 2022, published 2025).
